{"source": "patent US4024252A", "about": "“2-(5-Ethyl-6-bromothiazolo[3,2-b]-5-triazolyl)thiophosphonate esters, compositions and method of use” (priority 1973, dated 1977)", "key": {"[1]": {"system": "house flies (Musca domestica Linne)", "test": "Test 1 Insecticidal Activity against Fly", "type": "in vivo", "conditions": "topical; for mortality at 0.25 µg/fly: 0.25γ/a fly; for mortality at 0.5 µg/fly: 0.5γ/a fly", "procedure": "Fixed concentration of acetone solution containing test compound were prepared.\n20 pieces of female adults of house flies (Musca domestica Linne) were tested with 1 μl of acetone solution at their thoracie dorsal by microcylinge and kept at a temperature of 25° C and at a humidity of 65%. 24 hours and 48 hours after treatment, dead flies were counted and mortality (%) was calculated."}, "[2]": {"system": "Cabbage armyworm (Leucania separate Walker)", "test": "Test 2 Insecticidal Activity against Cabbage armyworm", "type": "in vivo", "procedure": "10 Multigeneration bred armyworms (Leucania separate Walker) were used for one experimental zone.\n[…] Then the leaf was set an filter paper having 9 cm diameter in a schale. The test insects were inoculated into the dish and the cover was put on it. After 1 day and 3 days from inoculation, dead insects were counted and mortality (%) were calculated. The results were shown in"}, "[3]": {"system": "desert spider mite (Tetranychus desertorum Banks)", "test": "Test 3 Test for Control of Mite", "type": "in vivo", "conditions": "72 h, read-out: Rating of mortality", "procedure": "About 30 adult female mites of desert spider mite (Tetranychus desertorum Banks) laid on main leaves of the potted kidney bean plants grown 7 to 10 days stage after aprouting. One day later, the wounded mites were removed from the plants. The compounds to be tested were sprayed on the plants as water suspension of emulsifiable concentrate prepared by the method of Example 6. After 1 day and 3 days from spraying, dead mites were counted and mortality (%) was calculated."}, "[4]": {"system": "Rice stem borer (Chilo suppressalis Walker)", "test": "Test 4 Insecticidal Activity against Rice stem borer", "type": "in vivo", "conditions": "168 h, a week after spraying", "procedure": "20 hatched nymph of Rice stem borer (Chilo suppressalis Walker) were inoculated to the potted rice (height: 30 - 40 cm, number: 4/pot). A week after inoculation, 30 ml of fixed concentration of solution containing test compound were sprayed on the rice in which hatched nymph were inhabiting and the pots were kept at the room temperature. A week after spraying, the rice was opened, dead Rice stem borers were counted and mortality (%) was calculated."}, "[5]": {"system": "tobacco cutworms (Prodenia litura Fabricius)", "test": "Test 5 Test for Control of Tobacco cutworm", "type": "in vivo", "conditions": "72 h, 3 days; for mortality at 31.3 ppm: 31.3 p.p.m.; for mortality at 62.5 ppm: 62.5 p.p.m.; for mortality at 125 ppm: 125 p.p.m.", "procedure": "Then the leaf and 5 tobacco cutworms (Prodenia litura Fabricius) of 3 stages larva were put into a covered dish.\nThe test was carried out twice. After 3 days from inoculation, dead insects were counted and mortality (%) was calculated."}, "[6]": {"system": "northern house mosquito (Culex pipiens molestus Forskal)", "test": "Test 6 Insecticidal Activity against Mosquito", "type": "in vivo", "conditions": "24 hours after inoculation, aqueous suspension of wettable powder", "procedure": "An aqueous suspension of formulated wettable powder were poured in 200 ml beaker and in which 20 northern house mosquito (Culex pipiens molestus Forskal) were inoculated."}, "[7]": {"test": "Toxicity Test 1, acute oral toxicity", "conditions": "in vivo, mouse; for LD50: oral; for LD50 at 336 h: po, mice, stomach tube, 25% aqueous gum arabic, 2 weeks (Table 7)", "description": "Suspension of the test compound in 25% aqueous solution of gum arabic was compulsorily treated to six mice by means of a stomack tube and inspection had been made for 2 weeks."}, "[8]": {"test": "Toxicity Test 2, medium tolerated limit in carp", "type": "in vivo, Cyprinus carpio", "conditions": "water", "procedure": "The test compound was dissolved in dimethylformamide and said solution was added to 20 liters of water containing 10 carps (Cyprinus carpio) in a fixed concentration.\nDead fish within 48 hours from the addition of test compounds was counted.\nThe results were shown in Table 8 as medium tolerated limit (TLm).\n*TLm is the concentration of test compound which half the number of fish"}, "[9]": {"conditions": "48 hours (Table 8), read-out: TLm (medium tolerated limit)"}, "[10]": {"conditions": "48 hrs, read-out: medium tolerance limit (48 hrs) for carp"}}, "note": "Like-named read-outs stand apart in the source and are kept apart here."}
{"smiles": "CCOP(=S)(OCC)Oc1nc2scc(C)n2n1", "note": "[Comparison compound, O,O-diethyl-2-(5-methylthiazolo[3,2-b]-s-triazolyl)thionophosphate, reference compound]", "values": [{"measurement": "mortality at 0.25 µg/fly", "setting": "[1]; 24 hrs.", "result": 0, "unit": "%"}, {"measurement": "mortality at 0.25 µg/fly", "setting": "[1]; 48 hrs.", "result": 10, "unit": "%"}, {"measurement": "mortality at 0.5 µg/fly", "setting": "[1]; 24 hrs.", "result": 70, "unit": "%"}, {"measurement": "mortality at 0.5 µg/fly", "setting": "[1]; 48 hrs.", "result": 70, "unit": "%"}, {"measurement": "mortality at 15.7 ppm", "setting": "[2]; 24 h", "result": 30, "unit": "%"}, {"measurement": "mortality at 7.8 ppm", "setting": "[2]; 24 h, 1 day", "result": 0, "unit": "%"}, {"measurement": "mortality at 31.3 ppm", "setting": "[2]; 24 h, 1 day", "result": 70, "unit": "%"}, {"measurement": "mortality at 15.7 ppm", "setting": "[2]; 72 h", "result": 80, "unit": "%"}, {"measurement": "mortality at 7.8 ppm", "setting": "[2]; 72 h, 3 days", "result": 0, "unit": "%"}, {"measurement": "mortality at 31.3 ppm", "setting": "[2]; 72 h, 3 days", "result": 100, "unit": "%"}, {"measurement": "mortality at 500 ppm", "setting": "[3]", "result": 100, "unit": "%"}, {"measurement": "mortality at 15.6 ppm", "setting": "[4]; 15.6 ppm", "result": 84, "unit": "%"}, {"measurement": "mortality at 31.3 ppm", "setting": "[4]", "result": 100, "unit": "%"}, {"measurement": "mortality at 31.3 ppm", "setting": "[5]", "result": 0, "unit": "%"}, {"measurement": "mortality at 62.5 ppm", "setting": "[5]", "result": 80, "unit": "%"}, {"measurement": "mortality at 125 ppm", "setting": "[5]", "result": 100, "unit": "%"}, {"measurement": "LC50", "setting": "[6]", "result": 0.04, "unit": "µg/mL"}, {"measurement": "LD50", "setting": "[7]", "result": "33 to 50", "unit": "mg/kg"}, {"measurement": "LD50 at 336 h", "setting": "[7]", "result": "33 to 50", "unit": "mg/kg"}, {"measurement": "LC50 at 48 h", "setting": "[8]; [9]", "result": "< 0.5", "unit": "µg/mL"}]}
{"smiles": "CCc1c(Br)sc2nc(OP(=S)(OC)OC)nn12", "note": "[Example 1, O,O-Dimethyl 2-(5-ethyl-6-bromothiazolo[3,2-b]s-triazolyl) thionophosphate]", "values": [{"measurement": "mortality at 15.7 ppm", "setting": "[2]; 24 h", "result": 60, "unit": "%"}, {"measurement": "mortality at 7.8 ppm", "setting": "[2]; 24 h, 1 day", "result": 50, "unit": "%"}, {"measurement": "mortality at 31.3 ppm", "setting": "[2]; 24 h, 1 day", "result": 100, "unit": "%"}, {"measurement": "mortality at 15.7 ppm", "setting": "[2]; 72 h", "result": 100, "unit": "%"}, {"measurement": "mortality at 7.8 ppm", "setting": "[2]; 72 h, 3 days", "result": 90, "unit": "%"}, {"measurement": "mortality at 31.3 ppm", "setting": "[2]; 72 h, 3 days", "result": 100, "unit": "%"}, {"measurement": "mortality at 500 ppm", "setting": "[3]", "result": 100, "unit": "%"}]}
{"smiles": "CCOP(=S)(OCC)Oc1nc2sc(Br)c(CC)n2n1", "note": "[Example 2, O,O-Diethyl 2-(5-ethyl-6-bromothiazolo[3,2-b]-s-triazolyl) thionophosphate]", "values": [{"measurement": "mortality at 0.25 µg/fly", "setting": "[1]; 24 hrs.", "result": 30, "unit": "%"}, {"measurement": "mortality at 0.25 µg/fly", "setting": "[1]; 48 hrs.", "result": 40, "unit": "%"}, {"measurement": "mortality at 0.5 µg/fly", "setting": "[1]; 24 hrs.", "result": 100, "unit": "%"}, {"measurement": "mortality at 0.5 µg/fly", "setting": "[1]; 48 hrs.", "result": 100, "unit": "%"}, {"measurement": "mortality at 15.7 ppm", "setting": "[2]; 24 h", "result": 90, "unit": "%"}, {"measurement": "mortality at 7.8 ppm", "setting": "[2]; 24 h, 1 day", "result": 60, "unit": "%"}, {"measurement": "mortality at 31.3 ppm", "setting": "[2]; 24 h, 1 day", "result": 100, "unit": "%"}, {"measurement": "mortality at 15.7 ppm", "setting": "[2]; 72 h", "result": 100, "unit": "%"}, {"measurement": "mortality at 7.8 ppm", "setting": "[2]; 72 h, 3 days", "result": 100, "unit": "%"}, {"measurement": "mortality at 31.3 ppm", "setting": "[2]; 72 h, 3 days", "result": 100, "unit": "%"}, {"measurement": "mortality at 500 ppm", "setting": "[3]", "result": 100, "unit": "%"}, {"measurement": "mortality at 7.8 ppm", "setting": "[4]; 7.8 ppm", "result": 91, "unit": "%"}, {"measurement": "mortality at 31.3 ppm", "setting": "[4]", "result": 100, "unit": "%"}, {"measurement": "mortality at 15.6 ppm", "setting": "[5]; 15.6 p.p.m.", "result": 60, "unit": "%"}, {"measurement": "mortality at 31.3 ppm", "setting": "[5]", "result": 80, "unit": "%"}, {"measurement": "mortality at 62.5 ppm", "setting": "[5]", "result": 100, "unit": "%"}, {"measurement": "mortality at 125 ppm", "setting": "[5]", "result": 100, "unit": "%"}, {"measurement": "LC50", "setting": "[6]", "result": 0.003, "unit": "µg/mL"}, {"measurement": "LD50", "setting": "[7]", "result": 280, "unit": "mg/kg"}, {"measurement": "LD50 at 336 h", "setting": "[7]", "result": 280, "unit": "mg/kg"}, {"measurement": "LC50 at 48 h", "setting": "[8]; [10]", "result": 18.5, "unit": "µg/mL"}]}
{"smiles": "CCc1c(Br)sc2nc(OP(=S)(OC(C)C)OC(C)C)nn12", "note": "[Example 3, O,O-diisopropyl 2-(5-ethyl-6-bromothiazolo[3,2-b]-s-triazolyl)thionophosphate]", "values": [{"measurement": "mortality at 15.7 ppm", "setting": "[2]; 24 h", "result": 60, "unit": "%"}, {"measurement": "mortality at 7.8 ppm", "setting": "[2]; 24 h, 1 day", "result": 50, "unit": "%"}, {"measurement": "mortality at 31.3 ppm", "setting": "[2]; 24 h, 1 day", "result": 100, "unit": "%"}, {"measurement": "mortality at 15.7 ppm", "setting": "[2]; 72 h", "result": 100, "unit": "%"}, {"measurement": "mortality at 7.8 ppm", "setting": "[2]; 72 h, 3 days", "result": 90, "unit": "%"}, {"measurement": "mortality at 31.3 ppm", "setting": "[2]; 72 h, 3 days", "result": 100, "unit": "%"}]}
{"smiles": "CCOP(=S)(OCC)Oc1nc2sc(Br)c(C)n2n1", "note": "[O,O-diethyl-2-(5-methyl-6-bromothiazolo[3,2-b]-s-triazolyl)thionophosphate, reference compound]", "values": [{"measurement": "LD50", "setting": "[7]", "result": 150, "unit": "mg/kg"}, {"measurement": "LC50 at 48 h", "setting": "[8]; [10]", "result": "< 0.05", "unit": "µg/mL"}]}
{"smiles": "CCc1c(Br)sc2nc(OP(=S)(OC)OC)nn12", "note": "[drawing 11]", "values": [{"measurement": "LD50 at 336 h", "setting": "[7]", "result": "> 200", "unit": "mg/kg"}]}
{"smiles": "CCc1c(Br)sc2nc(OP(=S)(OC(C)C)OC(C)C)nn12", "note": "[drawing 12]", "values": [{"measurement": "LD50 at 336 h", "setting": "[7]", "result": "> 200", "unit": "mg/kg"}]}
{"smiles": "CCc1c(Br)sc2nc(OP(=S)(OC)OC)nn12", "note": "[drawing 15]", "values": [{"measurement": "LC50 at 48 h", "setting": "[8]; [9]", "result": "> 5", "unit": "µg/mL"}]}
{"smiles": "CCc1c(Br)sc2nc(OP(=S)(OC(C)C)OC(C)C)nn12", "note": "[drawing 16]", "values": [{"measurement": "LC50 at 48 h", "setting": "[8]; [9]", "result": "> 5", "unit": "µg/mL"}]}
